Assay results published in patent US9266883B2, “Ring-fused bicyclic pyridyl derivatives as FGFR4 inhibitors” (Novartis AG, priority 2013, dated 2016).
pIC50: −log10 of the molar value. Like-named read-outs stand apart in the source and are kept apart here.

Columns and labels:
[1] = system: HuH-7 hepatocellular carcinoma cells; test: CellTiter Glo (CTG) Assay; conditions: Homo sapiens, Huh-7, 72 h, read-out: HUH7 proliferation (nM) CTG
[2] = molecular target: FGFR4 (GST-FGFR4(388-802)) (Homo sapiens (Human), UniProt P22455); test: In-vitro biochemical kinase assay for FGFR4 (Caliper microfluidic mobility shift)
[3] = molecular target: Tel-FGFR4 (Homo sapiens (Human), UniProt P22455); test: In vitro cellular kinase assay for FGFR4 (BaF3-Tel-FGFR4 cells, MSD capture ELISA of tyrosine phosphorylation); assay type: cell-based
[4] = read-out: Biochemical FGFR4 IC50
[5] = BaF3-Tel-FGFR4 cells, 1 hour incubation, read-out: Cellular BaF3 FGFR4 IC50
[6] = biochemical FGFR4 assay, read-out: Biochemical IC50
[7] = Cellular BaF3 FGFR4 assay, read-out: Cellular IC50

Sequence of FGFR4 (GST-FGFR4(388-802)) (P22455 388-802): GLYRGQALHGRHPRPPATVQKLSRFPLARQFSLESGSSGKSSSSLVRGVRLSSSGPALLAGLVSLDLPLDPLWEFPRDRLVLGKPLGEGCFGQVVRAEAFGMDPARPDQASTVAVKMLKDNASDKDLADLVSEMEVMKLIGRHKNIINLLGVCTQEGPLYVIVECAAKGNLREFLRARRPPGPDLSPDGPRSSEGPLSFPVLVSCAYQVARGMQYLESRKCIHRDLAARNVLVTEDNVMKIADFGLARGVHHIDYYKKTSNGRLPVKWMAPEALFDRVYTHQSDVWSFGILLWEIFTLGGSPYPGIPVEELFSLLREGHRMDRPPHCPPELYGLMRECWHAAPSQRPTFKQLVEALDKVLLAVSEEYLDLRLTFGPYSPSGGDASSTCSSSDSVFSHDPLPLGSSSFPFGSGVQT
Sequence of Tel-FGFR4 (P22455 other isoform, or with tags, fused parts or gaps): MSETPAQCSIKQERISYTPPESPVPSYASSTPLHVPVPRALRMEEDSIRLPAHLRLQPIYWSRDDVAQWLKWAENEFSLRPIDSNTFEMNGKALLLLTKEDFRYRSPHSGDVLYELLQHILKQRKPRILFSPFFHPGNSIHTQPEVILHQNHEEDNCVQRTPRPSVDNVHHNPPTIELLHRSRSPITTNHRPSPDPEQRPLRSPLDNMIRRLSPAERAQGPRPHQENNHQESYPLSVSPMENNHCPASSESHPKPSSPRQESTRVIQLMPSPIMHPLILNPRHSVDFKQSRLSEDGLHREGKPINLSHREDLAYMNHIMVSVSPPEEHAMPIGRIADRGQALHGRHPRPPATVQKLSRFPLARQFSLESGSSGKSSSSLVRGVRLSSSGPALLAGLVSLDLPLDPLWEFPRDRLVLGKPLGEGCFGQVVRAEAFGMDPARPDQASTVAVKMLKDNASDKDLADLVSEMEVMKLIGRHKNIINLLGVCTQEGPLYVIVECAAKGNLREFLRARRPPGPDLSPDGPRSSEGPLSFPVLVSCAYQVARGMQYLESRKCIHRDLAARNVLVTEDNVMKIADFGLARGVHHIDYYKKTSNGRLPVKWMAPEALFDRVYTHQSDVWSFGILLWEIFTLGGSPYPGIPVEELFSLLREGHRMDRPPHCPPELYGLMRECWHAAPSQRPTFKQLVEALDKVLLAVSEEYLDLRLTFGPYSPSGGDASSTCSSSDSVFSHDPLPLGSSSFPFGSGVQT

Structure (SMILES) | IC50 [1] | pIC50 [3, 5] | also measured
COCCNc1cc(NC(=O)N2CCCc3cc(N4CCOC4=O)c(C=O)nc32)ncc1C#N [Example 263, N-(5-cyano-4-((2-methoxyethyl)amino)pyridin-2-yl)-7-formyl-6-(2-oxooxazolidin-3-yl)-3,4-dihydro-1,8-naphthyridine-1(2H)-carboxamide] | 894 nM | 7.96 | pIC50 [2, 4]: 9.70
COCCNc1cc(NC(=O)N2CCCc3cc(CN(CCN(C)C)S(C)(=O)=O)c(C=O)nc32)ncc1C#N [Example 144, N-(5-cyano-4-((2-methoxyethyl)amino)pyridin-2-yl)-6-((N-(2-(dimethylamino)ethyl)methylsulfonamido)methyl)-7-formyl-3,4-dihydro-1,8-naphthyridine-1(2H)-carboxamide] | 504 nM | 7.73 | pIC50 [2, 4]: 8.64
CC(C)Oc1cc(NC(=O)N2CCCc3cc(CN(C)C(=O)CN(C)C)c(C=O)nc32)ncc1C#N [Example 145, N-(5-cyano-4-isopropoxypyridin-2-yl)-6-((2-(dimethylamino)-N-methylacetamido)methyl)-7-formyl-3,4-dihydro-1,8-naphthyridine-1(2H)-carboxamide] | 154 nM | 7.82 | pIC50 [2, 4]: 9.40
COCCNc1cc(NC(=O)N2CCCc3cc(CN4C[C@@H](C)N[C@@H](C)C4)c(C=O)nc32)ncc1C#N [Example 242, N-(5-cyano-4-((2-methoxyethyl)amino)pyridin-2-yl)-6-(((3R,5S)-3,5-dimethylpiperazin-1-yl)methyl)-7-formyl-3,4-dihydro-1,8-naphthyridine-1(2H)-carboxamide] | 1780 nM | 7.57 | pIC50 [2, 4]: 8.59
N#Cc1cnc(NC(=O)N2CCCc3ccc(C=O)nc32)cc1OCC1CCCCO1 (racemic) [Example 36, N-(5-cyano-4-((tetrahydro-2H-pyran-2-yl)methoxy)pyridin-2-yl)-7-formyl-3,4-dihydro-1,8-naphthyridine-1(2H)-carboxamide] | > 3000 nM |  | 
CN1CCN(Cc2cc3c(nc2C=O)N(C(=O)Nc2cc(NCCOC(C)(C)C)c(C#N)cn2)CCC3)C(=O)C1 [Example 196, N-(4-((2-(tert-butoxy)ethyl)amino)-5-cyanopyridin-2-yl)-7-formyl-6-((4-methyl-2-oxopiperazin-1-yl)methyl)-3,4-dihydro-1,8-naphthyridine-1(2H)-carboxamide] | 150 nM | 7.74 | 
CC(C)Oc1cc(NC(=O)N2CCCc3cc(CN4C[C@@H](N(C)C)CC4=O)c(C=O)nc32)ncc1C#N [(S)-N-(5-cyano-4-isopropoxypyridin-2-yl)-6-((4-(dimethylamino)-2-oxopyrrolidin-1-yl)methyl)-7-formyl-3,4-dihydro-1,8-naphthyridine-1(2H)-carboxamide] |  |  | pIC50 [2, 6]: 9.70; pIC50 [3, 7]: 7.95
COCCNc1cc(NC(=O)N2CCCc3cc(CN4CC[N+](C)([O-])CC4=O)c(C=O)nc32)ncc1C#N (stereo not drawn) [Example 222, 4-((8-((5-cyano-4-((2-methoxyethyl)amino)pyridin-2-yl)carbamoyl)-2-formyl-5,6,7,8-tetrahydro-1,8-naphthyridin-3-yl)methyl)-1-methyl-3-oxopiperazine 1-oxide] |  | 7.38 | pIC50 [2, 4]: > 8.32
COC[C@@H](C)Nc1cc(NC(=O)N2CCCc3cc(C(F)F)c(C=O)nc32)ncc1C#N [(R)-N-(5-cyano-4-((1-methoxypropan-2-yl)amino)pyridin-2-yl)-6-(difluoromethyl)-7-formyl-3,4-dihydro-1,8-naphthyridine-1(2H)-carboxamide] |  |  | pIC50 [2, 6]: 8.92; pIC50 [3, 7]: 7.72
COC[C@@H](C)Nc1cc(NC(=O)N2CCCc3cc(CN(C)C(C)=O)c(C=O)nc32)ncc1C#N [(R)-N-(5-cyano-4-((1-methoxypropan-2-yl)amino)pyridin-2-yl)-7-formyl-6-((N-methylacetamido)methyl)-3,4-dihydro-1,8-naphthyridine-1(2H)-carboxamide] |  |  | pIC50 [2, 6]: 8.74; pIC50 [3, 7]: 8.35

Now from value to compound, other results behind:

IC50 [1] | Structure (SMILES) | pIC50 [3, 5] | also measured
2850 nM | COCCNc1cc(NC(=O)N2CCCc3cc(C(C)N(C)C(C)=O)c(C=O)nc32)ncc1C#N (racemic) [Example 135, N-(5-cyano-4-((2-methoxyethyl)amino)pyridin-2-yl)-7-formyl-6-(1-(N-methylacetamido)ethyl)-3,4-dihydro-1,8-naphthyridine-1(2H)-carboxamide] |  | 
101 nM | COCCNc1cc(NC(=O)N2CCCc3cc(CN4C(=O)COC[C@H]4C)c(C=O)nc32)ncc1C#N [Example 118, (R)-N-(5-cyano-4-((2-methoxyethyl)amino)pyridin-2-yl)-7-formyl-6-((3-methyl-5-oxomorpholino)methyl)-3,4-dihydro-1,8-naphthyridine-1(2H)-carboxamide] |  | 
104 nM | CC(C)Oc1cc(NC(=O)N2c3nc(C=O)c(CN4CCN(C)CC4=O)cc3CC[C@@H]2C)ncc1C#N [Example 227, (S)-N-(5-cyano-4-isopropoxypyridin-2-yl)-7-formyl-2-methyl-6-((4-methyl-2-oxopiperazin-1-yl)methyl)-3,4-dihydro-1,8-naphthyridine-1(2H)-carboxamide] |  | 
134 nM | COCCOc1cc(NC(=O)N2c3nc(C=O)c(CN4CCN(C)CC4=O)cc3CC[C@@H]2C)ncc1C#N [Example 226, (S)-N-(5-cyano-4-(2-methoxyethoxyl)pyridin-2-yl)-7-formyl-2-methyl-6-((4-methyl-2-oxopiperazin-1-yl)methyl)-3,4-dihydro-1,8-naphthyridine-1(2H)-carboxamide] |  | 
103 nM | COCCNc1cc(NC(=O)N2CCCc3cc(CN4CCN(C)C(C)(C)C4=O)c(C=O)nc32)ncc1C#N [Example 245, N-(5-cyano-4-((2-methoxyethyl)amino)pyridin-2-yl)-7-formyl-6-((3,3,4-trimethyl-2-oxopiperazin-1-yl)methyl)-3,4-dihydro-1,8-naphthyridine-1(2H)-carboxamide] | 7.94 | 
160 nM | COCCNc1cc(NC(=O)N2CCCc3cc(CN4C(=O)COC[C@@H]4C)c(C=O)nc32)ncc1C#N [Example 120, (S)-N-(5-cyano-4-((2-methoxyethyl)amino)pyridin-2-yl)-7-formyl-6-((3-methyl-5-oxomorpholino)methyl)-3,4-dihydro-1,8-naphthyridine-1(2H)-carboxamide] |  | 
502 nM | CN1CCCC(COc2cc(NC(=O)N3CCCc4cc(CO)c(C=O)nc43)ncc2C#N)C1 (racemic) [Example 73, N-(5-cyano-4-((1-methylpiperidin-3-yl)methoxy)pyridin-2-yl)-7-formyl-6-(hydroxymethyl)-3,4-dihydro-1,8-naphthyridine-1(2H)-carboxamide] |  | 
2780 nM | COCCNc1cc(NC(=O)N2CCCc3cc(CN4CCCC45COC5)c(C=O)nc32)ncc1C#N [Example 193, 6-(2-oxa-5-azaspiro[3.4]octan-5-ylmethyl)-N-(5-cyano-4-((2-methoxyethyl)amino)pyridin-2-yl)-7-formyl-3,4-dihydro-1,8-naphthyridine-1(2H)-carboxamide] |  | 
1360 nM | COCCNc1cc(NC(=O)N2CCCc3cc(-c4cccnc4)c(C=O)nc32)ncc1C#N [Example 256, N-(5-cyano-4-((2-methoxyethyl)amino)pyridin-2-yl)-7-formyl-6-(pyridin-3-yl)-3,4-dihydro-1,8-naphthyridine-1(2H)-carboxamide] |  | 
